The values below come from patent US20160122387A1, “Angiotensin Peptide and Pharmaceutical Compositions for Disease Treatment” (UNIVERSIDADE FEDERAL DE MINAS GERAIS - UFMG, priority 2012, published 2016).

For experiment [1], the system named is thoracic aortic rings of spontaneously hypertensive rats (SHR). The experiment is described as follows: Vasorelaxation in thoracic aortic rings of spontaneously hypertensive rats (SHR) pre-contracted with phenylephrine. Details: species or system rat. As to conditions: percentage of decrease of phenylephrine contraction. Here is the method:
(§1) Three- to four-mm rings of the descending thoracic aorta, free from adipose and connective tissue, were maintained in a gasified solution (95% 02 and 5% CO2) of Krebs-Henseleit, at 37° C. under 1.0 g tension, 1 hour for stabilization. The presence of functional endothelium was assessed by the ability of acetylcholine [ACh] (10 μmol/L) to induce more than 70% relaxation of vessels pre-contracted with phenylephrine (Phe) ([…]). The mechanical activity, recorded isometrically by a force transducer, was fed into a recorder-amplifier and a computer equipped with an analog-digital converter board, using CVMS data acquisition/recording software.
(§2) The vessels from normotensive Wistar rats and spontaneously hypertensive rats (SHR) were pre-contracted in the same voltage level (approximately 1.0 g tension) at the submaximal concentration of phenylephrine ([…]). Arg0-Ang-(1-7) and Ang-(1-7) were added in increasing cumulative concentrations as the response to phenylephrine was stabilized. Results are presented as mean±SEM. One-way analysis of variance (ANOVA) with Newman-Keuls post test of multiple comparisons was used to compare the concentration response curves obtained in the aortic rings. The vasodilatation effect of arg0-Ang-(1-7) and Ang-(1-7) was expressed as the percentage of decrease in peak concentration induced by phenylephrine. […]

A further experiment addresses T1, rat receptor Mas (Rattus norvegicus, UniProt P12526).
T1 construct: expressed in transfected cells
T1 sequence (P12526 1-324): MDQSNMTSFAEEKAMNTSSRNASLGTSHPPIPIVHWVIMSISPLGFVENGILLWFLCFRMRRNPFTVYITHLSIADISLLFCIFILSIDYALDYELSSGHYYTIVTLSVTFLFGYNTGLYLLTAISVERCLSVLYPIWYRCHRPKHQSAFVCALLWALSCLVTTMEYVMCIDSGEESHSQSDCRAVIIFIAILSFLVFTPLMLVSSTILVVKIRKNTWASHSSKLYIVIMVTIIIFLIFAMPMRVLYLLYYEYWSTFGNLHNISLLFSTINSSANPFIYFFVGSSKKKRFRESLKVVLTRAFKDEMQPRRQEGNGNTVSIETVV
The experiment in a line: Nitric oxide production in CHO cells transfected with the Mas receptor (DAF-FM fluorescence). In kind it is cell-based. As to conditions: 10^−7 mol/L, 60 minutes. Here is the method:
Chinese hamster ovary cells (CHO) were stably transfected with the cDNA of the rat receptor Mas driven by a cytomegalovirus promoter and selected using neomycin. Nitric oxide production was monitored using the indicator NO 4-amino-5-methylamino-2′,7′-difluorofluorescent diacetate.
Confluent CHO cells transfected with the Mas receptor and cultured in 6-well plates were preincubated in 1.5 ml of serum free medium (DMEM) containing DAF-FM (least 5 uM) and supplemented with 0.2% BSA, 0.005% bacitracin, […] phenylmethylsulfonyl fluoride and […] 1, 10-phenanthroline at 37° C. in a humidified incubator in an atmosphere with 5% CO2. After 30 minutes, cells were washed and incubated with arg0-Ang-(1-7) and Ang-(1-7) at 10^−7 mol/L for 60 minutes. Subsequently, the cells were washed twice and the slides were mounted for confocal microscopy for evaluation.
Relative fluorescence measurements were made using a Zeiss LSM 510 laser scanning META confocal microscope excited at 488 nm with an argon-ion laser (objective lens immersion oil, 63×).
Results are presented as mean±SEM. One-way analysis of variance with Bonferroni post-test for multiple comparisons was used to compare the concentration-response curve in CHO cells transfected with the receptor Mas. All statistical analyses were considered significant when p<0.05.

Experiment [2] deals with thoracic aortic rings of normotensive Wistar rats. The experiment in a line: Vasorelaxation in thoracic aortic rings of normotensive Wistar rats pre-contracted with phenylephrine. As to conditions: aortic rings of Wistar and SHR rats (FIGS. 2A and 2B). Details: species or system rat. As to the method:
as §1, §2

The subject of experiment [3] is Human alveolar adenocarcinoma cells (A549). The experiment in a line: Anti-proliferative effect in A549 cells (AlamarBlue cell viability). In kind it is cell-based. As to conditions: 1×10^−4 to 2×10^−7M, 48 hours. Here is the method: Human alveolar adenocarcinoma cells (A549), cultured in DEMEM supplemented with 10% fetal bovine serum and 1% penicillin/streptomycin, were distributed into 96 wells plate at the density of 2×10^4 cells/well. After 48 hours of incubation in an incubator at 37° C., the arg0-angiotensin-(1-7) and angiotensin (1-7) peptides were added to the wells and serially diluted (1×10^−4 to 2×10^−7M) in culture medium free of fetal bovine serum. Wells not plated with cells and wells with cells but stimulated only with culture medium were used as controls. The stimulus, which lasted 48 hours, was followed by the addition of AlamarBlue reagent (Invitrogen), used to detect cell viability.

Asp-Arg-Val-Tyr-Ile-His-Pro [Ang-(1-7)] displayed an Emax of vasorelaxation in experiment [1] of 30±3%. Also, the nitric oxide production result in the experiment with rat receptor Mas is recorded as “stimulated nitric oxide production”. In experiment [2], the “endothelium dependence of the vasorelaxant effect” value is “endothelium-dependent”. Further, the anti-proliferative effect entry in experiment [3] is “anti-proliferative effect”.
